Measurements reported in patent US20230341404A1, “TARGETING STROMA-CANCER INTERACTIONS IN CANCER” (The Regents of the University of California, priority 2022, published 2023).
Residues, ends and D or L forms follow the SMILES beside them. *: point of attachment. Cbz = O=C(OCc1ccccc1)*

Assays:
KPC cells = assay: intrasplenic PDAC cell implantation (liver tumours); type: in vivo, mouse; conditions: 10 mg kg^−1 EIPA intraperitoneal every other day
Description: FIGS. 14A-14J: Effect of macropinocytosis and mitochondria on Col I-controlled PDAC cell growth. FIG. 14A, Bromodeoxyuridine (BrdU) incorporation into KPC cells plated on ECM mixtures produced by R/R and WT fibroblasts (R:W). Scale bars, 10 μm. FIG. 14B, FIG. 14C, Paren. and IKKα^KD KPC (FIG. 14B) or KC (FIG. 14C) cells were plated −/+ WT or R/R ECM and incubated in LG −/+ indicated reagents. Viable cells were measured after 3 days and depicted relative to untreated plastic-plated Paren. cells. (FIG. 14C). IKKα KD efficiency is shown on the right (FIG. 14B). FIGS. D, E, Viable 1305 (FIG. 14D) or MIA PaCa-2 (FIG. 14E) cells plated as above and incubated in LG −/+ EIPA. f, Viable Paren. and E79Q KPC cells plated, treated, and presented as above. […] Total viable cells were measured as above and are presented relative to the untreated cells. FIG. 14H, Mitochondrial ATP production calculated from FIG. 6B. […] Quantification of the SR positive area is shown on the left. […] Statistical significance determined by two-tailed t-test. […]
Three-month-old Col I^WT or Col I^r/r mice were treated with or without an oral gavage of 25% CCl4 in corn oil twice a week for two weeks. […] Mice were analysed 14 days after treatment with or without 10 mg kg^−1 EIPA (Sigma) by intraperitoneal injection every other day.

PDAC cells = assay: cell viability assay (Cell Counting Kit-8) on wild-type or R/R ECM; type: cell-based, mouse and human; conditions: LG medium
Description: Cells were plated in 96-well plates coated with or without ECM at a density of 3,000 cells (MIA, 1305) or 1,500 cells (KPC or KC) per well and incubated overnight before treatment. 7rh (500 nM), ML120B (10 μM), EIPA (10.5 μM), IPI549 (600 nM), MBQ-167 (500 nM), MRT68921 (600 nM) or ML385 (10 μM), or their combinations, were added to the wells in the presence of complete medium (CM), LG medium or LQ medium for 72 h. Cell viability was determined with a Cell Counting Kit-8 assay (Glpbio). Optical density was read at 450 nm and analysed using a microplate reader with SoftMax 6.5 software (FilterMax F5, Molecular Devices). For all experiments, the medium was replaced every 24 h.

KPC or KC cells [1] = assay: uptake of [3H] from [3H]-proline-labelled ECM; type: cell-based, mouse; conditions: LG medium, 24 h
Description: To assess the effects of Col I on metabolism, Applicant labeled wild-type and R/R fibroblasts with [^3H]-proline or [U-^13C]-glutamine for five days, during which period the cells coated the plates with Col I-containing ECM. After decellularization, KPC or KC cells and variants thereof were plated and cultured for 24 h in LG medium. The uptake of [^3H] in cells plated on wild-type ECM was dependent on macropinocytosis, as indicated by sensitivity to macropinocytosis inhibitors (EIPA (an NHE1 inhibitor), IPI549 (a PI3Kγ inhibitor) or MBQ-167 (a CDC42 and RAC inhibitor)) and to the knockdown of NHE 1 or SDC1, and enhancement by the ULK1 inhibitor MRT68921 (MRT)^11.
Wild-type or R/R fibroblasts were seeded on 6, 12 or 96-well plates. One day after plating, cells were switched into DMEM (with pyruvate) with 10% dialysed FBS supplemented with or without 500 μM [^3H]-proline or [U-^[…]]-glutamine and 100 μM vitamin C. Cells were cultured for five days with renewal of the medium every 24 h. Then fibroblasts were removed by washing in 1 ml or 500 μl or 100 μl per well PBS with 0.5% (v/v) Triton X-100 and 20 mM NH4OH. The ECM was washed five times with PBS before cancer cell plating. The following day, cancer cells were switched into the indicated medium for 24 or 72 h.

DDR1 = assay: immunoblot of DDR1 in KPC cells plated on wild-type or R/R ECM; type: cell-based, mouse; conditions: LG medium, 24 h
Description: FIGS. 4A-4G: The Col I—DDR1—NRF2 axis controls macropinocytosis and mitochondrial biogenesis. FIG. 4A, Representative images and quantification of mitochondria and macropinocytosis in TMR-DEX-incubated parental and variant KPC cells grown on wild-type ECM. FIG. 4B, Immunoblot analysis of the indicated proteins in KPC cells grown on plastic or wild-type or R/R ECM and incubated in LG or LQ medium for 24 h. The effects of wild-type and R/R ECM on DDR1 signaling are summarized on the right. mito., mitochondria; pDDR1, phosphorylated DDR1. FIG. 4C, Representative images and quantification of mitochondria and macropinocytosis in TMR-DEX-incubated parental and NRF2^E79Q (E79Q) KPC cells plated on wild-type or R/R ECM in LG medium with or without 7rh or ML120B for 24 h. […] Statistical significance determined by two-tailed t-test. […]
The expression and function of DDR1 vary in different cancer stages and types^18-21. […] Unlike DDR1 in triple-negative breast cancer (TNBC)^20, no shedding of the DDR1 extracellular domain was detected (FIG. 12F). […]
Preparation of protein samples from cells and tissues, immunoblotting and immunoprecipitation were performed as before^10, 30. Immunoreactive bands were detected by an automatic X-ray film processor or a KwikQuant Imager.

KPC or KC cells [2] = assay: luminescence ATP detection assay; type: cell-based, mouse; conditions: cells cultured on wild-type ECM, 24 h
Description: KPC or KC cells were grown on 96-well plates coated with or without the indicated ECM in the presence of 100 μl CM or LG medium with or without EIPA (10.5 μM), MBQ-167 (500 nM), MRT68921 (600 nM) or their combinations for 24 h. Then the cell number was measured. Intracellular ATP was determined with a luminescence ATP detection assay system (PerkinElmer) according to the manufacturer's protocol. Finally, luminescence was measured and normalized to cell number.

KPC or KC cells [3] = assay: L-amino acid assay; type: cell-based, mouse; conditions: cells cultured on wild-type ECM, LG medium, 24 h
Description: KPC or KC cells were grown on six-well plates coated with or without the indicated ECM in the presence of […] LG medium with or without EIPA (10.5 μM), MRT68921 (600 nM) or their combinations for 24 h. Total amounts of free 1-amino acids (except for glycine) were measured using an L-Amino Acid Assay Kit (Colorimetric, […]) according to the manufacturer's protocol. The concentration of 1-amino acids was calculated within samples by comparing the sample optical density to the standard curve and normalized to cell number.

[4] = IKKα^KD cells versus parental cells
[5] = parental cells on wild-type ECM, 7rh 500 nM, ML120B 10 μM, ML385 10 μM, EIPA 10.5 μM, IPI549 600 nM, MBQ-167 500 nM

SMILES | cell growth (viable cells) (PDAC cells; [4]) | cell growth (viable cells) (PDAC cells; parental cells on R/R ECM) | cell growth (viable cells) (PDAC cells; [5]) | uptake of [3H] (KPC or KC cells [1]; cells plated on R/R ECM) | uptake of [3H] (KPC or KC cells [1]; cells plated on wild-type ECM) | other results
CCN(c1nc(N)c(C(=O)NC(=N)N)nc1Cl)C(C)C [EIPA] | more sensitive | did not decrease the low growth | decreased growth on wild-type ECM | unaffected | sensitivity | tumour growth (KPC cells; Col I^r/r livers): had little effect; tumour growth (KPC cells; wild-type livers): inhibited tumour growth
CC(C)C[C@@H](C=O)NC(=O)[C@H](CC(C)C)NC(=O)[C@H](CC(C)C)NC(=O)OCc1ccccc1 [MG132] (Cbz-Leu-Leu-Leu-aldehyde) | – | – | – | – | – | DDR1 expression (DDR1): rescued DDR1 expression
Cc1ccccc1C(=O)N1CCc2cc(-c3nc(NC(=O)Cc4ccc5c(c4)OCO5)sc3C)ccc21 [ML385] | – | did not decrease the low growth | decreased growth on wild-type ECM | – | – | –
CN1CCc2cc(Nc3ncc(C4CC4)c(NCCCNC(=O)C4CCC4)n3)ccc2C1 [MRT68921] | – | – | – | – | enhancement | levels of ATP (KPC or KC cells [2]): further increased; amino acid content (KPC or KC cells [3]): further increased
C[C@H](NC(=O)c1c(N)nn2cccnc12)c1cc2cccc(C#Cc3cnn(C)c3)c2c(=O)n1-c1ccccc1 [IPI549] | more sensitive | did not decrease the low growth | decreased growth on wild-type ECM | unaffected | sensitivity | –
CCn1c2ccccc2c2cc(-n3nncc3-c3ccccc3)ccc21 (racemic) [MBQ-167] | more sensitive | did not decrease the low growth | decreased growth on wild-type ECM | unaffected | sensitivity | –
COc1c(Cl)cc2c([nH]c3cnccc32)c1NC(=O)c1cccnc1C [ML120B] | – | did not decrease the low growth | decreased growth on wild-type ECM | – | – | cell growth (viable cells) (PDAC cells; NRF2(E79Q)-expressing cells): resistant
